Measurements as given in publication PMC6562204 (Bioorganic & Medicinal Chemistry, 2018).

Target: CK2α (Homo sapiens, UniProt P68400)
Assay: biochemical
Conditions: read-out: % inhibition of phosphorylation activity of CK2α

Sequence of CK2α (P68400 2-329): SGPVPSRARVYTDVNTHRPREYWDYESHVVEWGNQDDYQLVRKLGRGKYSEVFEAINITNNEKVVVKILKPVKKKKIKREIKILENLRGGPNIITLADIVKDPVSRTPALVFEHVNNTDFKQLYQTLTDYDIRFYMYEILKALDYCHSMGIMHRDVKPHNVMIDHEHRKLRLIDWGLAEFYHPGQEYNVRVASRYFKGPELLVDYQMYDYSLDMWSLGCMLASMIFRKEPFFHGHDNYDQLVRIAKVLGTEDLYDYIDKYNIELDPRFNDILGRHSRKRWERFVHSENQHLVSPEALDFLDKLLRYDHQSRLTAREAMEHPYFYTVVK

Question: Which inhibition at 100 µM does the source give for `NCc1cc(Cl)cc(-c2cccc3[nH]ccc23)c1` [Compound 7, (3-chloro-5-(1H-indol-4-yl)phenyl)methanamine] here?
Answer: Its inhibition at 100 µM is 18%.
